These results are taken from a melting point compilation (Tetko et al.; mined from patent text by program, amines drawn as free bases though some values may be those of a salt).

The structures appear in SMILES notation. Residues, ends and D or L forms follow the SMILES beside them. *: point of attachment. Cbz = O=C(OCc1ccccc1)*

For orientation: melting point means the temperature, or range, at which the solid turns liquid. On to `C=C1SC(=O)N(c2ccc3cc(-c4ccc(OC)c(C56CC7CC(CC(C7)C5)C6)c4)ccc3c2)C1=O`, for which the melting point lay within 286 to 287 °C.
`CCc1nnc(CCCOc2c(C)cc(-c3noc(C)n3)cc2C)s1` yielded a melting point of 83 to 84 °C.
`CS(=O)(=O)Cc1cnc2ccsc2c1O` showed a melting point above 300 °C.
`COc1ccc(C(Cc2cc(Cl)nc(Cl)c2)=NO)cc1OC1CCCC1` yielded a melting point of 139 to 140 °C.
Regarding `CCCCCCC1(C)Nc2ccccc2-c2c([N+](=O)[O-])cnn21` (stereo not drawn), the melting point was 86 to 88 °C.
For the molecule `Cc1c(Cc2ccncc2)nnc(Nc2ccc(Cl)cc2)c1C`, the melting point was 196 to 199 °C.
`Nc1ncnc2c1cnn2C1OC(CO)C(O)C1O` (stereo not drawn): the melting point was determined as 253 °C.
`Cn1nc(N)c2c(F)cccc21`: the melting point is 125 to 127 °C.
`Nc1nc(-c2ccncc2O)nc2c1c(C(F)(F)F)nn2C1CCCC1`: the melting point was in the range of 187 to 190 °C.
To `Cc1ccc(N2CCN(C(=O)NCCN(C)C)CC2)cc1` belongs 85 to 88 °C; to `Oc1ncn(-c2cccc(F)n2)n1`, 290 °C.
To `O=C1Nc2ccccc2CCC1(Cl)Cl` belongs 185 to 187 °C; to `O=C1c2cc(O)ccc2OCC1Cc1ccccn1` (stereo not drawn), 150 to 151 °C; to `CC(=O)N1CCN(c2cccc(F)n2)CC1`, 102 to 103 °C.
As for `CC(=O)N1CC(=O)NC(=Cc2ccc(OCc3ccccc3)cn2)C1=O`, the melting point lay within 189 to 191 °C.
In turn, `C=CCOC(=O)N[C@H]1CC(=O)O[C@H]1OCc1ccccc1` registered a melting point of 108 to 110 °C.
For `CC(=O)OCC(C)C1CCC2C3CC=C4CC(O)CCC4(C)C3CCC12C` (stereo not drawn), the melting point worked out at 143 °C.
Regarding `O=C(O)c1cc([N+](=O)[O-])cc([N+](=O)[O-])c1Nc1cc(-c2ccccc2)ccc1O`, the melting point fell in the range of 215 to 217 °C.
The molecule `COc1cc2nc(C)nc(Cl)c2cc1OCCCN1CCOCC1` showed a melting point of 116 to 118 °C.
As to `CCn1cc(CS(C)(=O)=O)c(=O)c2ccccc21`, the melting point was 162 to 164 °C.
`NC(=S)NN=C(CNC(=O)C1CCCCC1)c1ccccc1` returned a melting point of 104 to 110 °C.
To `CCn1c(=O)nc(C(C)C)c2cc3c(cc21)OCO3` belongs 180 to 185 °C.
`CCCNC(=O)NNC(=O)c1ccccc1`: the melting point was 172 to 174 °C.
To `COc1ccc2c(c1)Cc1c(-c3cccs3)n[nH]c1-2` belongs 212 to 214 °C.
`COc1ccc(Sc2ncc(Cl)cn2)cc1` showed a melting point of 75 °C.
Regarding `CN1CCN(CCOc2ccc([C@H]3c4ccc(OCc5ccccc5)cc4OC[C@H]3c3ccccc3)cc2)CC1` (racemic), the melting point was in the range of 103 to 107 °C.
In the case of `Cc1ccc(S(=O)(=O)NC[C@H](F)Cc2ccccc2)cc1`, the melting point lay within 130 to 133 °C.
To `Oc1cc2c(cc1C=CCc1ccccc1)OCO2` belongs 83 °C; to `CCc1cn(C2CC(O)C(CN(C)C(=O)Cc3ccccc3Br)O2)c(=O)[nH]c1=O` (stereo not drawn), 182 to 185 °C; to `Clc1ccc2c(c1)NCc1ccccc1O2`, 94 to 95 °C.
`O=C(CCS)Nc1ccc(Nc2ccccc2)cc1` yielded a melting point of 98.3 to 99.5 °C.
To `CCOc1cc(CC)ccc1C1CCN(CCCCNC(=O)c2ccc(-c3ccc(S(C)(=O)=O)cc3)cc2)CC1` belongs 179 to 180 °C.
In the case of `CC(C)(C)OC(=O)c1ncn2c1C1C=CCN1C(=O)c1c(Cl)cccc1-2` (stereo not drawn), the melting point was in the range of 227 to 229 °C.
To `O=c1c(Cl)c(Cl)cnn1-c1cccc(COc2ccccc2)c1` belongs 92 to 94 °C; to `Cc1ccc(-c2nc3sc4ccccc4n3c2CC(N)=O)s1`, 243 to 245 °C; to `COc1ccc(S(=O)(=O)NCc2ccc(-n3c(-c4cccnc4N)nc4cc(Br)cnc43)cc2)cc1`, 188 to 190 °C.
To `Cc1cc(NC(=O)c2cccc(CSc3cnccn3)c2)ccc1C(C)C` belongs 69 to 73 °C.
As for `CCC1(CC)C(=O)ON(C(=O)c2cc(OC)c(OC)c(OC)c2)C1=O`, the melting point was in the range of 103 to 106 °C.
As for `C=Cc1cc(Cl)cc2c1OC(C(F)(F)F)C(C(=O)O)=C2` (stereo not drawn), the melting point lay in the range of 183 to 186 °C.
Take `CC(C)(CNc1ccc(C2=NNC(=O)CC2)cc1)NCC(O)COc1ccccc1C#N` (stereo not drawn): the melting point was in the range of 126 to 128 °C.
`CC(C)Oc1ncc(C#N)c(O)n1` gave a melting point of 166 °C.
In turn, `CNC(=O)C(Cc1ccc(F)cc1)NC(=O)Nc1n[nH]c(=S)s1` (stereo not drawn) returned a melting point of 225 to 227 °C.
On to `CCOC1=NC(N)=C(C(=O)OC)C(c2cccc(Cl)c2)C1C(=O)OC` (stereo not drawn), for which the melting point came to 158 °C.
The molecule `CCCCC(C)(CC)C(O)C(Oc1ccc(-c2ccccc2)cc1)n1cncn1` (stereo not drawn) came in with a melting point of 120 to 122 °C.
To `COCn1nnc(NC(=O)C2c3ccccc3Oc3ccccc32)n1` belongs 221 to 222 °C.
`CC(C)(C)OC(=O)N[C@@H](Cc1ccccc1Cl)C(=O)NC1CCC(Nc2cccc3c2C(=O)c2ccccc2C3=O)CC1` (stereo partly drawn) yielded a melting point of 183 °C.
To `O=C1CCC(N2Cc3c(OCc4ccc(Cl)cc4)cccc3C2=O)C(=O)N1` (stereo not drawn) belongs 224 to 226 °C; to `COC(=O)C=Cc1cccc2cc[nH]c12`, 85 to 86 °C.
Turning to `Cc1c(C)c2c(c(C)c1O)CCC(C)(COc1ccc(CC(Cl)C(=O)O)cc1)O2` (stereo not drawn), the melting point was in the range of 148 to 149 °C.
In the case of `COc1cc(-c2ccc3ncc(NC(=O)Nc4ccccc4)nc3n2)ccc1O`, the melting point turned out to be 240 °C.
In the case of `COc1cc(CO)ccc1OCc1nc(-c2cccnc2)oc1C`, the melting point was 117 to 118 °C.
The molecule `COP(=O)(CCC(C)(C)c1ccc(O)cc1O)OC` came in with a melting point of 142 to 143 °C.
The molecule `Cn1c(=O)c(C#N)c(Cl)c2ccccc21` returned a melting point of 235 °C.
`COc1ccc(Cl)cc1C(=O)NCCC1CCN(S(=O)(=O)NC(=O)NC2CC2)CC1`: the melting point was in the range of 138 to 139 °C.
Take `COC=C(C#N)Cc1ccc(OC)c(OC)c1`: the melting point was in the range of 64 to 65 °C.
As for `O=C(O)C(Sc1nc2c(s1)CCCC2)c1ccccc1` (stereo not drawn), the melting point was 118 to 120 °C.
The molecule `Cc1ccc2c(c1)c1cc(-c3ccc(Cl)cc3Cl)c(=O)n(C)c1n2CCO` had a melting point of 240 °C.
`CC(C#Cc1ccc(Oc2cncc(Cl)c2)o1)N(O)C(N)=O` (stereo not drawn) registered a melting point of 150 °C.
On to `COC(=O)C(Cc1ccccc1)NC(=O)C(CC(N)=O)NC(=O)C(CO)NC(=O)OCc1ccccc1` (stereo not drawn) (Cbz-Ser-Asn-Phe-OMe; configuration not given here), for which the melting point is 180 to 183 °C.
Turning to `CCc1nn2c(-c3cccnc3)ccnc2c1C#N`, the melting point fell in the range of 170 to 172 °C.
To `CN(C)c1ccccc1C(=O)N1CCC(=O)c2ccc(Cl)cc21` belongs 85.5 to 89 °C; to `CCCC(=O)Nc1c(Br)cc(C(=O)OCC)cc1CN(CC)CC`, 134 °C.
Turning to `NS(=O)(=O)OCCc1ccccn1`, the melting point lay in the range of 89 to 91 °C.
`Cc1cc(C(C)(C)C)c(OC(=O)c2cc(C(C)(C)C)c(O)c(C(C)(C)C)c2)c(C)c1COC(=S)c1cc(C(C)(C)C)c(O)c(C(C)(C)C)c1`: the melting point lay within 225 to 228 °C.
In turn, `COC1CC2CC(OC(=O)c3ccccc3)CCC2(C)C2CCC3(C)C(=C12)C(O)CC3C(C)CCCC(C)C` (stereo not drawn) yielded a melting point of 182 to 183 °C.
The molecule `CC(=O)N1CCN(C2CCN(c3ccc(NC(=O)c4cnn(-c5ccc(Cl)cc5)c4C)cc3C#N)CC2)CC1` displayed a melting point of 247 °C.
For the molecule `COc1ccc(CCN2CCC(Nc3nc4cncnc4n3Cc3ccccn3)CC2)cc1`, the melting point was determined as 144 °C.
Consider `CCOC(=O)c1sc(Br)c2c1OCO2`, for which the melting point came to 93 °C.
For `C[C@@H]1S[C@@H](C(=O)Nc2ccc(CN3C(=O)CCCC3=O)cc2)Cc2cc3c(cc2C1=O)OCO3`, the melting point is 205 to 208 °C.
`O=C(O)CCc1ccc(C=CC(=O)c2ccccc2)cc1` yielded a melting point of 159 to 160 °C.
Take `Cc1c(NC(=O)c2ccc(-c3ccc(F)cc3)cc2)ccc2cc(CN3CCC(CC(=O)N(C)C)CC3)cnc12`: the melting point lay within 200 to 201 °C.
Turning to `O=C1SC(Cc2ccc(OCCON=Cc3ccc4ccccc4n3)cc2)C(=O)N1C(c1ccccc1)(c1ccccc1)c1ccccc1` (stereo not drawn), the melting point was 127 to 130 °C.
For `CCOC(=O)c1nc2scc(CNC(=O)c3ccc(C(=O)OC)cc3)c2c(=O)[nH]1`, the melting point came out at 236 °C.
Regarding `COCCNc1ccc(S(=O)(=O)Oc2ccc(N)c([N+](=O)[O-])c2)cc1`, the melting point stood at 105 °C.
To `COC(=O)c1cnc(N)cn1` belongs 229 to 231 °C.
In the case of `NCCNC(=S)Nc1c(Br)cccc1Br`, the melting point lay within 155 to 157 °C.
To `Cn1ncc2[nH]c3ccc(Cc4cccc(C(N)=O)c4)cc3c(=O)c21` belongs above 300 °C; to `O=C(CC(=O)C(F)(F)F)Nc1cc(-c2ccccc2Br)n[nH]1`, 128 to 131 °C.
The molecule `O=C1Nc2cc(F)ccc2C1c1ncnc2c1cnn2C1CCCCC1` (stereo not drawn) returned a melting point of 277 to 280 °C.
Take `CCCCc1nc2cccc(C#N)c2n1Cc1ccccc1Cl`: the melting point was in the range of 124 to 127 °C.
In turn, `COc1ccc(-c2ccc(C(=O)Nc3cc4ncc(CN5CCCCCC5)cc4cc3C)cc2)cc1` yielded a melting point of 161 °C.
Molecule `CCCOc1ncc(C#C[Si](C)(C)C)cc1-c1nc2c(CC)nn(CCN3CCOCC3)c2c(=O)[nH]1` yielded a melting point of 132 to 134 °C.
With `O=S1(=O)c2ccccc2NC(CO)c2cccn21` (stereo not drawn), the melting point was 135 to 136 °C.
To `COc1cc(N)c(Cl)cc1C(=O)N[C@H]1CCN(Cc2cnccn2)C[C@H]1OC` (relative stereo) belongs 204 °C.
Molecule `CCCn1c(=O)c2[nH]c(-c3cc(C)n(CC(=O)Nc4ccc(Cl)c(Cl)c4)n3)nc2n(CCC)c1=O` gave a melting point of 298 °C.
`Cc1noc2cc3c(cc12)C1(CO3)C(=O)N(Cc2ccc(-c3cc(N)n[nH]3)cc2)c2ccccc21` (stereo not drawn): the melting point lay in the range of 191 to 195 °C.
In turn, `O=C1CCCc2c1c1cc(Cl)ccc1n2Cc1ccc(F)cc1` registered a melting point of 207 to 208 °C.
The molecule `Cn1nc(-c2c(Cl)cncc2Cl)nc1C1(C)CC1(Cl)Cl` (stereo not drawn) displayed a melting point of 79 to 83 °C.
